Structures can show the parent of a compound that is named as a salt.
Tested on: female Holotrichia parallela adults
Assay: Y-tube olfactometer behavioral bioassay
Type: in vivo
Conditions: dsHparOBP14-injected females
Experimental: (§1) The dsRNAs of HparOBP14 and GFP (GenBank number: ACY56286) (for primers, see Table S1) were synthesized using a T7 Ribo MAX™ Express RNAi System (Promega, Madison, WI, USA) according to the manufacturer’s instructions. The GFP-dsRNA was used as the negative control. Nine-to-eleven-day-old female adult beetles were injected with 2 μg dsRNA into the adult head with a 5 μL injection needle (7000 series syringes, Hamilton, USA), then kept under the same condition as 2.1 described above. The antennae were dissected at 24 h, 48 h, 72 h, and 96 h after injection, and the samples were stored at −80 °C for further RT-qPCR analyses.
The Y-tube olfactometer mainly consisted of a Y-shaped glass tube (main arm, 30 cm; sidearm, 20 cm; inner diameter, 2.5 cm; side arm angle, 60 degrees), an air sampler, a drying tower, a gas scrubber, and a flow meter. Two gas-washing cylinders were successively connected with the flow meter, drying tower, air pump, and Y-shaped glass tube through rubber pipes. The testing compound (concentration 1 μg/μL in paraffin oil) and paraffin oil (as control) were taken and dropped respectively into a rubber septum (Pherobio Technology Co., Ltd., Beijing, China) and placed respectively into the side arms of the Y-tube. The flow rate of the atmospheric air sampler was adjusted to 500 mL/min.
A female adult beetle was introduced into the main arm at the downwind end of the Y-olfactometer. Each beetle was given 5 min to respond to the treatment, and the first choice that the beetle made for each of the lateral arms was recorded. The response was regarded as valid only if the beetle crawled more than 3 cm into a lateral arm and stayed for more than 1 min.
For each compound, more than 90 beetles were tested individually until 90 responsive beetles were obtained. Each individual beetle was tested only once, and the Y-olfactometer was replaced after every 10 beetles were tested to eliminate the odor effect. The number of individual beetles that selected the compound-treated arm of the Y-olfactometer was statistically compared with the number of beetles that selected the solvent-treated arm using a Chi-square goodness of fit test.

| Structure (SMILES) | change of attraction after injection of dsHparOBP14 |
| --- | --- |
| CC(C)=CCC/C(C)=C/CO [geraniol] | markedly reduced |
| CO [methanol] | markedly reduced |
| CC1=CCC2CC1C2(C)C (stereo not drawn) [α-pinene] | significantly increased |
| Cc1ccc(C(C)C)cc1 [p-cymene] | no obvious change |
| Cc1c[nH]c2ccccc12 [3-methylindole] | no obvious change |
| CC(=O)CCC=C(C)C [6-methyl-5-hepten-2-one] | significantly increased |
| C=O [formaldehyde] | no obvious change |

Same assay, conditions: uninjected females, vs paraffin oil

| Structure (SMILES) | behavioral response of uninjected female beetles |
| --- | --- |
| CC(C)=CCC/C(C)=C/CO [geraniol] | attracted |
| CO [methanol] | attracted |
| CC1=CCC2CC1C2(C)C (stereo not drawn) [α-pinene] | attracted |
| Cc1ccc(C(C)C)cc1 [p-cymene] | attracted |
| Cc1c[nH]c2ccccc12 [3-methylindole] | attracted |
| CC(=O)CCC=C(C)C [6-methyl-5-hepten-2-one] | attracted |
| C=O [formaldehyde] | attracted |

Tested on: antennae of H. parallela female adults
Assay: Electroantennogram (EAG) recording after dsRNA injection
Type: in vivo, Holotrichia parallela
Conditions: 48 h after dsHparOBP14 injection; 20 μL of 1 μg/μL in paraffin oil
Experimental: as §1
The EAG recording was conducted on the adult antennae with the EAG micromanipulator MP-15 and analyzed with EAG-Pro (Syntech, Kirchzarten, Germany). Briefly, two ends of the antennae were set on electrode holders with a conductive adhesive (Spectra 360 electrode gel). An ashless filter paper (Hangzhou Special Paper Co., Ltd., Hangzhou, China) was cut into strips (3 cm × 0.5 cm). A 20 μL compound solution (concentration 1 μg/μL in paraffin oil) was applied onto the paper strip which was then placed in a Pasteur tube (17 cm × […]) and applied to the antennae by purified air at a flow rate of 1 L/min. The paraffin oil (20 μL) was used as a control. The stimulus recording time was 0.5 s and the interval between two stimulations was more than 1 min.

| Structure (SMILES) | change of EAG responsive amplitude in dsHparOBP14-injected insects compared to uninjected control |
| --- | --- |
| CC(C)=CCC/C(C)=C/CO [geraniol] | decreased significantly |
| CO [methanol] | decreased significantly |
| CC1=CCC2CC1C2(C)C (stereo not drawn) [α-pinene] | decreased significantly |
| Cc1ccc(C(C)C)cc1 [p-cymene] | decreased significantly |
| Cc1c[nH]c2ccccc12 [3-methylindole] | do not change significantly |
| CC(=O)CCC=C(C)C [6-methyl-5-hepten-2-one] | do not change significantly |
| C=O [formaldehyde] | decreased significantly |

Same assay, conditions: female adults; 20 μL of 1 μg/μL in paraffin oil

| Structure (SMILES) | EAG response |
| --- | --- |
| Cc1c[nH]c2ccccc12 [3-methylindole] | clear responses |
| CC(=O)CCC=C(C)C [6-methyl-5-hepten-2-one] | clear responses |

Molecular target: recombinant HparOBP14 (Holotrichia parallela, UniProt A0A0G2YD86)
Assay: biochemical
Type: binding
Conditions: not given
Experimental: To determine the affinity of HparOBP14 to odorant volatiles, the fluorescent displacement binding assay was carried out. A total of 27 compounds was selected, including 7 compounds from host plant (elm) volatiles, 11 compounds from organic fertilizer volatiles, and 9 compounds common in both of them. The odorant compounds (purity ≥95%) were purchased from Sigma-Aldrich. The fluorescent probe N-phenyl-1-naphthylamine (1-NPN) was dissolved in methanol (chromatographic grade) to a final concentration of 1 mM and used as the stock solution. The stock solution of the purified protein was diluted with Tris-HCl (50 mmol/L, pH 7.4) to a final concentration of 2 μM and added into a colorimetric plate cuvette. The 1-NPN stock solution was then successively added to the protein solution to the final concentrations ranging from 2 μM to 20 μM. The fluorescence changes were recorded to get K1-NPN, the dissociation constant of the complex HparOBP14/1-NPN.
The binding ability of HparOBP14 to the odorant compounds was determined by titrating the mixture of the protein and the 1-NPN (final concentration 2 μM of both) with each odorant compound at final concentrations ranging from 2 μM to 40 μM. The competitive dissociation constant was calculated from the corresponding IC50 values using the following equation: Ki = [IC50]/(1+ [1-NPN]/K1-NPN), where [1-NPN] is the free concentration of 1-NPN; K1-NPN is the dissociation constant of the complex HparOBP14/1-NPN.
The fluorescence changes during the binding of either 1-NPN or odorant compounds to the HparOBP14 protein were measured and recorded with the excitation wavelength of 337 nm and within a wavelength range of 350~550 nm by a 970CRT fluorescence spectrophotometer (Yidian Analytical Instrument Company, Shanghai, China).

Chain of recombinant HparOBP14 (A0A0G2YD86 entry or part of it): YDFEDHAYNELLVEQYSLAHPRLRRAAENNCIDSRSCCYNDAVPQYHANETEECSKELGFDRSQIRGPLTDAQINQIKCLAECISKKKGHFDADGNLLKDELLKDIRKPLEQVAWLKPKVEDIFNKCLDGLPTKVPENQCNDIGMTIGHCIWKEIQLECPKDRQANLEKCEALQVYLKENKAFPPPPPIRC

| Structure (SMILES) | IC50 | Ki | Kd |
| --- | --- | --- | --- |
| CC(C)=CCC/C(C)=C/CO [geraniol] | 40 µM | 34.1 µM |  |
| CC/C=C\CCO [(Z)-3-hexen-1-ol] | > 40 µM | > 34.1 µM |  |
| C=CC(C)(O)CCC=C(C)C (stereo not drawn) [linalool] | > 40 µM | > 34.1 µM |  |
| CCCCCCO [1-hexanol] | > 40 µM |  |  |
| CCCC(=O)O [butyric acid] | > 40 µM | > 34.1 µM |  |
| C=CCc1ccc(O)c(OC)c1 [eugenol] | > 40 µM | > 34.1 µM |  |
| CC1=CCC2CC1C2(C)C (stereo not drawn) [α-pinene] | 38.5 µM | 32.8 µM |  |
| Cc1ccc(O)cc1 [p-cresol] | > 40 µM | > 34.1 µM |  |
| CC1=CC[C@H](C(C)C)C=C1 (racemic) [α-phellandrene] | > 40 µM | > 34.1 µM |  |
| Cc1ccc(C(C)C)cc1 [p-cymene] | 29.9 µM | 25.5 µM |  |
| c1ccc(Nc2cccc3ccccc23)cc1 [1-NPN, N-phenyl-1-naphthylamine, reference compound] |  |  | 5.8 µM |
| CC(=O)CCC=C(C)C [6-methyl-5-hepten-2-one] | 32 µM | 28.2 µM |  |
| CCCCCCCO [1-heptanol] | > 40 µM |  |  |
| c1ccc2[nH]ccc2c1 [indole] | > 40 µM | > 34.1 µM |  |

Same assay, conditions: 1-NPN displacement, Figure 5

| Structure (SMILES) | binding ability with HparOBP14 |
| --- | --- |
| C=CC(C)(O)CCC=C(C)C (stereo not drawn) [linalool] | weaker, or no, binding ability |
| CC/C=C\CCOC=O [cis-3-hexenyl formate] | weaker, or no, binding ability |
| CCCCC(CC)CO (stereo not drawn) [2-ethylhexanol] | weaker, or no, binding ability |
| CC1=CC[C@H](C(C)C)C=C1 (racemic) [α-phellandrene] | weaker, or no, binding ability |
| CC/C=C\CCOC(C)=O [cis-3-hexenyl acetate] | weaker, or no, binding ability |

Same assay, conditions: HparOBP14 and 1-NPN 2 µM each, titrated with compound 2–40 μM

| Structure (SMILES) | Int (%): relative fluorescence intensity of 1-NPN/HparOBP14 complex after the addition of testing compound |
| --- | --- |
| CC(C)=CCC/C(C)=C/CO [geraniol] | 72.07% |
| CC/C=C\CCO [(Z)-3-hexen-1-ol] | 96.53% |
| CCCC(O)CC (stereo not drawn) [3-hexanol] | 84.27% |
| C=C1C2CCC(C2)C1(C)C (stereo not drawn) [camphene] | 83.88% |
| C=CC(C)(O)CCC=C(C)C (stereo not drawn) [linalool] | 89.20% |
| CC/C=C\CCOC=O [cis-3-hexenyl formate] | 81.25% |
| CCCCCCCCC=O [1-nonanal] | 69.22% |
| CCCCCCO [1-hexanol] | 72.19% |
| CO [methanol] | 65.66% |
| CCCC(=O)O [butyric acid] | 99.07% |
| C=CCc1ccc(O)c(OC)c1 [eugenol] | 86.03% |
| CC1=CCC2CC1C2(C)C (stereo not drawn) [α-pinene] | 67.49% |
| Cc1ccc(O)cc1 [p-cresol] | 91.23% |
| CCCCC(CC)CO (stereo not drawn) [2-ethylhexanol] | 85.80% |
| CCCCCCCCCCCC=O [dodecyl aldehyde] | 92.42% |
| CC1=CC[C@H](C(C)C)C=C1 (racemic) [α-phellandrene] | 83.00% |
| CC/C=C\CCOC(C)=O [cis-3-hexenyl acetate] | 81.43% |
| Cc1ccc(C(C)C)cc1 [p-cymene] | 62.70% |
| Cc1c[nH]c2ccccc12 [3-methylindole] | 56.22% |
| CC(=O)CCC=C(C)C [6-methyl-5-hepten-2-one] | 61.66% |
| C=O [formaldehyde] | 68.91% |
| CCCCCCCO [1-heptanol] | 83.41% |
| CC1=CCC2C(C1)C2(C)C (stereo not drawn) [3-carene] | 68.52% |
| CCCCCCCCCC=O [decanal] | 77.88% |
| c1ccc2[nH]ccc2c1 [indole] | 82.23% |

Same assay, conditions: HparOBP14 and 1-NPN 2 µM each, titrated with compound 2–40 μM; read-out: IC50

| Structure (SMILES) | IC50 |
| --- | --- |
| CCCC(O)CC (stereo not drawn) [3-hexanol] | > 40 µM |
| C=C1C2CCC(C2)C1(C)C (stereo not drawn) [camphene] | > 40 µM |
| CCCCCCCC=O [octanal] | > 40 µM |
| CC/C=C\CCOC=O [cis-3-hexenyl formate] | > 40 µM |
| CCCCCCCCC=O [1-nonanal] | > 40 µM |
| CO [methanol] | 32.1 µM |
| CCCCC(CC)CO (stereo not drawn) [2-ethylhexanol] | > 40 µM |
| CCCCCCCCCCCC=O [dodecyl aldehyde] | > 40 µM |
| CC/C=C\CCOC(C)=O [cis-3-hexenyl acetate] | > 40 µM |
| Cc1c[nH]c2ccccc12 [3-methylindole] | 24.6 µM |
| C=C1CC/C=C(\C)CC[C@@H]2[C@@H]1CC2(C)C [β-caryophyllen] | > 40 µM |
| C=O [formaldehyde] | 34.6 µM |
| CC1=CCC2C(C1)C2(C)C (stereo not drawn) [3-carene] | > 40 µM |
| CCCCCCCCCC=O [decanal] | > 40 µM |

Same assay, conditions: calculated from IC50: Ki = [IC50]/(1+[1-NPN]/K1-NPN); read-out: Ki

| Structure (SMILES) | Ki |
| --- | --- |
| CCCC(O)CC (stereo not drawn) [3-hexanol] | > 34.1 µM |
| C=C1C2CCC(C2)C1(C)C (stereo not drawn) [camphene] | > 34.1 µM |
| CCCCCCCC=O [octanal] | > 34.1 µM |
| CC/C=C\CCOC=O [cis-3-hexenyl formate] | > 34.1 µM |
| CCCCCCCCC=O [1-nonanal] | > 34.1 µM |
| CCCCCCO [1-hexanol] | > 34.1 µM |
| CO [methanol] | 27.4 µM |
| CCCCC(CC)CO (stereo not drawn) [2-ethylhexanol] | > 34.1 µM |
| CCCCCCCCCCCC=O [dodecyl aldehyde] | > 34.1 µM |
| CC/C=C\CCOC(C)=O [cis-3-hexenyl acetate] | > 34.1 µM |
| Cc1c[nH]c2ccccc12 [3-methylindole] | 21 µM |
| C=C1CC/C=C(\C)CC[C@@H]2[C@@H]1CC2(C)C [β-caryophyllen] | > 34.1 µM |
| C=O [formaldehyde] | 29.5 µM |
| CCCCCCCO [1-heptanol] | > 34.1 µM |
| CC1=CCC2C(C1)C2(C)C (stereo not drawn) [3-carene] | > 34.1 µM |
| CCCCCCCCCC=O [decanal] | > 34.1 µM |

Reference: publication PMC8151400, “Evidence of the Involvement of a Plus-C Odorant-Binding Protein HparOBP14 in Host Plant Selection and Oviposition of the Scarab Beetle Holotrichia parallela” (Insects, 2021)
